Measured values: patent US20230263808A1 (UNIVERSITY OF FLORIDA RESEARCH FOUNDATION, INCORPORATED, priority 2020, published 2023)

Tests used:
[1] = tested on: GILZ mRNA; experiment: GILZ gene expression; type: cell-based
[2] = target: T1, androgen receptor (AR) (Homo sapiens, UniProt P10275); experiment: AR-luciferase assay in 293T cells; type: cell-based
T1 construct: expressed in transfected cells; host or cells: 293T
T1 sequence (P10275 1-920): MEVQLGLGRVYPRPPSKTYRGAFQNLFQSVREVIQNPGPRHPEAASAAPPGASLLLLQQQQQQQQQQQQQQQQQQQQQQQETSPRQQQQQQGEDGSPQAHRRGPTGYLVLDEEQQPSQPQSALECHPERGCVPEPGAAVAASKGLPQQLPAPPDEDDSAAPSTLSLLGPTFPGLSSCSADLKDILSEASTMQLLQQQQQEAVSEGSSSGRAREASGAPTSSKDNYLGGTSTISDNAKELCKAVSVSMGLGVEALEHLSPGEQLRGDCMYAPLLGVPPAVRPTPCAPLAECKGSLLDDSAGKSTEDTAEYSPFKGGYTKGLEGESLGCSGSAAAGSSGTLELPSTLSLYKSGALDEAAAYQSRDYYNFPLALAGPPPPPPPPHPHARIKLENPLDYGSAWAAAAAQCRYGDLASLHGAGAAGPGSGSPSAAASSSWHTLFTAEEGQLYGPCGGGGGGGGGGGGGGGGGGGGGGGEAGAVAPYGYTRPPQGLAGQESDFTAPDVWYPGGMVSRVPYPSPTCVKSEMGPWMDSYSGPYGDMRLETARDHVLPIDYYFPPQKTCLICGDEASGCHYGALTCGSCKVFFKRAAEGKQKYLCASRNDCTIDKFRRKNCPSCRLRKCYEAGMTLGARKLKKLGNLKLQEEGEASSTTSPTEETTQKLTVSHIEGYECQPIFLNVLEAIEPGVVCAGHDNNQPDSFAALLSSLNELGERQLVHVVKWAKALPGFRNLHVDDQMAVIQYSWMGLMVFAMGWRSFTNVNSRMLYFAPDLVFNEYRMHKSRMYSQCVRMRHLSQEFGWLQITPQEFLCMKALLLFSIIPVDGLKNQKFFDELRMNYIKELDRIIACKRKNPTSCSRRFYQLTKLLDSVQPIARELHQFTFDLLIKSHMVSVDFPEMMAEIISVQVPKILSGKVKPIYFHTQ
Description: For native gene expression, C2C12 myotubes were treated compounds for 24 h. For MMTV-Luc assay, steroid-deprived 293T cells were co-transfected with a GR expression plasmid and an MMTV-driven luciferase reporter plasmid. The next day, cells were treated with compounds for 24 hrs. Each point represents the average of triplicate biological measurements for a separate compound. B) AR Luc assay development. Steroid-deprived 293T cells were transfected with AR expression plasmid and an ARR3-tk-driven luciferase reporter. The next day cells were treated with increasing doses of the indicated compounds. Data shown are mean+SD of triplicate measurements. C) AR-Luc assay identified 5 GCs with some AR activity.
For inclusion in the statistical analyses, assays were required to show high reproducibility, with a Pearson correlation >0.8 between different experiments (FIG. 2, H; FIG. 9, A). […] We also analyzed the effects of the compounds on expression of Fkbp5, Pdk4, and Klf15 mRNAs in C2C12 myotubes, and MMTV-luciferase and androgen receptor (AR) driven-luciferase activity in 293T cells. […] We also analyzed the effects of compounds on nuclear translocation of GR using a quantitative HTS approach (Htun et al., Proc. Natl. Acad. Sci. USA 93, 4845-4850, 1996). […]

[3] = Body weight change after an overnight fast; type: in vivo, C57BL/6 male mice; settings: 10 mg/kg Dex or SR16024, 50 mg/kg SR11466, single dose
Text: (§1) A) The effects of all tested compounds on IL-1β-induced IL-6 production (x-axes) versus GR interaction with the indicated peptides. B-C) The effects of all tested compounds on the indicated GC-regulated phenotypes (x-axes) versus GR interaction with the CHD9_1023 and CENPR_1 peptides (y-axes). D-F) COC plots. Each point represents the Pearson correlation coefficient, r, between a distinct gene expression or GR-peptide interaction assay with assays indicated on the x and y axes. G) The effects of all tested compounds on IL-1β-induced IL-6 production (y-axes) versus insulin-induced protein synthesis. […] IL-β-induced IL-6 production by A549 cells treated with the indicated compounds was compared by AlphaLISA. […] Mice in panel K were subjected to a lactate-tolerance test (LTT).
(§2) We were also interested in whether the compounds would show dissociation between Glut4 translocation in skeletal muscle and gluconeogenesis in the liver, but enhanced glucose production is typically studied after weeks or months of GC treatment. However, we reasoned that an overnight fast should enable detection of effects after a single dose. […] Thus, profiling effects of GCs in the physiological context of nutrient deprivation allowed the discovery of two new types of glucocorticoids with improved profiles in skeletal muscle.

[4] = Lactate-tolerance test (rate of glucose production); type: in vivo, C57BL/6 male mice; settings: after overnight fast; 10 mg/kg Dex or SR16024, 50 mg/kg SR11466
Text: as §1, §2

AR activity [2]	SMILES	GILZ gene expression [1]	preserving body mass after overnight fast [3]	rate of glucose production in lactate tolerance test [4]
weak AR antagonist	CC#CC1(O)CCC2C3CCc4cc(C(=O)Nc5cccnc5C)ccc4C3C(OCc3ccc(Cl)cc3)CC21C (stereo not drawn) [SR16025]	not activating GILZ		
	C=CCOC1CC2(C)C(CCC2(O)C#CC)C2CCc3cc(C(=O)Nc4cccnc4C)ccc3C12 (stereo not drawn) [SR11466]		significantly better than Dex	increased the rate of glucose production
	CC#CC1(O)CCC2C3CCc4cc(C(=O)Nc5cccnc5C)ccc4C3C(OCc3ccccc3Cl)CC21C (stereo not drawn) [SR16024]	not activating GILZ	slight weight sparing effect	
